How the values were obtained:
[1] = Ocular distribution and pharmacokinetics of 14C-voclosporin in NZW rabbits; type: in vivo, New Zealand White (NZW) rabbits; details: for AUC / Cmax: bilateral ocular; for Cmax: Blood
Procedure: (§1) NZW rabbits (30 females/8 males) were used in a single dose (SD) and 7-day repeat dose (RD) study (see Table 38). DB rabbits (16 females) were used in a single dose study (see Table 39). […] Blood and ocular tissue radioactivity levels were assessed at designated time points via combustion followed by liquid scintillation counting.
(§2) At each sampling point, a t-test was used to compare the tissue concentrations within or between the two strains of rabbits. SigmaStat® 3.5 (Systat, Inc., San Jose, Calif.) was used for the statistical analyses (p<0.05). […] Pharmacokinetic analysis was performed using WinNonlin 5.2 (Pharsight, Corporation, Mountain View, Calif.). Cmax and Tmax, and where calculable AUC and t1/2, were reported.

[2] = Ocular distribution and pharmacokinetics of 14C-voclosporin in DB rabbits; type: in vivo, Dutch Belted (DB) rabbits
Procedure: as §1, §2

[3] = system: canine keratoconjunctivitis sicca (KCS); assay: Topical voclosporin clinical study in dogs with KCS; type: in vivo
From the text: The study covered assessment of tear production (as measured by the Schirmer Tear Test (STT)), the response of clinical observation of the cornea, and participating ophthalmologists' overall assessment of efficacy.
Dogs diagnosed with chronic (>3 months in duration) immune-mediated KCS were selected from the clinic populations of the North Carolina State Veterinary Teaching Hospital. Diagnosis of immune-mediated KCS was made by exclusion of other causes of KCS.
Physical and ophthalmic examinations were performed at 0, 7, 14, and 28 days.

[4] = topical mixed micellar composition

## C=CC=CCC(C)C(O)C1C(=O)NC(CC)C(=O)N(C)CC(=O)N(C)C(CC(C)C)C(=O)NC(C(C)C)C(=O)N(C)C(CC(C)C)C(=O)NC(C)C(=O)NC(C)C(=O)N(C)C(CC(C)C)C(=O)N(C)C(CC(C)C)C(=O)N(C)C(C(C)C)C(=O)N1C (stereo not drawn) [^14C-voclosporin]
[1]; 35 μL of 0.2% 14C-voclosporin mixed micellar formulation, single or daily for 7 days, NZW and DB rabbits
  mortality, morbidity, clinical irritation: No mortality, morbidity or evidence of clinical irritation
[1]; Aqueous Humor, repeat dose (RD, QD for 7 days), female NZW rabbits
  AUC: 96 hr * ng eq./g
[1]; Aqueous Humor, single dose (SD), female NZW rabbits
  AUC: 45 hr * ng eq./g
[1]; repeat dose (RD, QD for 7 days), female NZW rabbits
  Cmax: BQL (Below Quantifiable Limit (<0.1 ng/mL))
[1]; single dose (SD), female NZW rabbits
  Cmax: BQL (Below Quantifiable Limit (<0.1 ng/mL))
[1]; Choroid/Retina, repeat dose (RD, QD for 7 days), female NZW rabbits
  AUC: 897 hr * ng eq./g
[1]; Choroid/Retina, single dose (SD), female NZW rabbits
  AUC: 472 hr * ng eq./g
[1]; Cornea, repeat dose (RD, QD for 7 days), female NZW rabbits
  AUC: 54624 hr * ng eq./g
[1]; Cornea, single dose (SD), female NZW rabbits
  AUC: 23166 hr * ng eq./g
[1]; Iris/Ciliary Body, repeat dose (RD, QD for 7 days), female NZW rabbits
  AUC: 1952 hr * ng eq./g
[1]; Iris/Ciliary Body, single dose (SD), female NZW rabbits
  AUC: 382 hr * ng eq./g
[1]; Lacrimal Gland, repeat dose (RD, QD for 7 days), female NZW rabbits
  AUC: 1109 hr * ng eq./g
[1]; Lacrimal Gland, single dose (SD), female NZW rabbits
  AUC: 416 hr * ng eq./g
[1]; Lens, repeat dose (RD, QD for 7 days), female NZW rabbits
  AUC: 356 hr * ng eq./g
[1]; Lens, single dose (SD), female NZW rabbits
  AUC: 47 hr * ng eq./g
[1]; Lower Bulbar Conjunctiva, repeat dose (RD, QD for 7 days), female NZW rabbits
  AUC: 16585 hr * ng eq./g
[1]; Lower Bulbar Conjunctiva, single dose (SD), female NZW rabbits
  AUC: 12029 hr * ng eq./g
[1]; Lower Eyelid, repeat dose (RD, QD for 7 days), female NZW rabbits
  AUC: 358791 hr * ng eq./g
[1]; Lower Eyelid, single dose (SD), female NZW rabbits
  AUC: 207630 hr * ng eq./g
[1]; Nictitating Membrane, repeat dose (RD, QD for 7 days), female NZW rabbits
  AUC: 15964 hr * ng eq./g
[1]; Nictitating Membrane, single dose (SD), female NZW rabbits
  AUC: 12135 hr * ng eq./g
[1]; Optic Nerve, repeat dose (RD, QD for 7 days), female NZW rabbits
  AUC: 1805 hr * ng eq./g
[1]; Optic Nerve, single dose (SD), female NZW rabbits
  AUC: 569 hr * ng eq./g
[1]; Sclera, repeat dose (RD, QD for 7 days), female NZW rabbits
  AUC: 3825 hr * ng eq./g
[1]; Sclera, single dose (SD), female NZW rabbits
  AUC: 2646 hr * ng eq./g
[1]; Submandibular Lymph Node, repeat dose (RD, QD for 7 days), female NZW rabbits
  AUC: 1190 hr * ng eq./g
[1]; Submandibular Lymph Node, single dose (SD), female NZW rabbits
  AUC: 893 hr * ng eq./g
[1]; Tear, repeat dose (RD, QD for 7 days), female NZW rabbits
  AUC: 230878 hr * ng eq./g
[1]; Tear, single dose (SD), female NZW rabbits
  AUC: 168259 hr * ng eq./g
[1]; Upper Bulbar Conjunctiva, repeat dose (RD, QD for 7 days), female NZW rabbits
  AUC: 19944 hr * ng eq./g
[1]; Upper Bulbar Conjunctiva, single dose (SD), female NZW rabbits
  AUC: 14782 hr * ng eq./g
[1]; Upper Eyelid, repeat dose (RD, QD for 7 days), female NZW rabbits
  AUC: 98656 hr * ng eq./g
[1]; Upper Eyelid, single dose (SD), female NZW rabbits
  AUC: 114651 hr * ng eq./g
[1]; Vitreous Humor, repeat dose (RD, QD for 7 days), female NZW rabbits
  AUC: 23 hr * ng eq./g
[1]; Vitreous Humor, single dose (SD), female NZW rabbits
  AUC: 27 hr * ng eq./g
[1]; after a single dose
  concentrations in remaining ocular tissues: 20-223 ng eq/g tissue
[1]; after a single dose, aqueous and vitreous humor, and the lens
  lowest concentrations of radioactivity in ocular tissues: 1-11 ng eq/g tissue
[1]; after a single dose, eyelids, conjunctiva, cornea, nictitating membrane and tears
  highest concentrations of radioactivity in ocular tissues: > 1 mg eq/g tissue
[1]; after ocular application
  Blood levels: at the lower limit of quantification (LLOQ)
[1]; after single and repeat ocular applications
  concentrations of radioactivity in all ocular tissues except lens, aqueous humor, vitreous humor: ≥ 10 ng eq/g tissue
[1]; all but one blood sample below LLOQ
  blood radioactivity: < 3.06 ng eq/mL
[1]; once daily ocular applications for 7 days
  concentrations in target tissues (conjunctiva, cornea, lacrimal gland) at 24 hours: remained at therapeutic levels even at the 24-hour mark
[1]; repeat dosing up to 7 days, lower bulbar conjunctiva, nictitating membrane, upper bulbar conjunctiva
  change in t1/2 on repeat dosing: no apparent change
[1]; single dose administration
  levels in all ocular tissues except aqueous/vitreous humor and lens: higher than 10 ng equivalent drug/gram tissue
[1]; unilateral dosing
  distribution to the contralateral, non-treated eye: minimal distribution
[2]; Aqueous Humor, single dose, bilateral ocular, female DB rabbits
  AUC: 56 hr * ng eq./g
[2]; Blood, single dose, bilateral ocular, female DB rabbits
  Cmax: BQL (Below Quantifiable Limit (<0.1 ng/mL))
[2]; Choroid/Retina, single dose, bilateral ocular, female DB rabbits
  AUC: 92 hr * ng eq./g
[2]; Cornea, single dose, bilateral ocular, female DB rabbits
  AUC: 27844 hr * ng eq./g
[2]; Iris/Ciliary Body, single dose, bilateral ocular, female DB rabbits
  AUC: 541 hr * ng eq./g
[2]; Lacrimal Gland, single dose, bilateral ocular, female DB rabbits
  AUC: 335 hr * ng eq./g
[2]; Lens, single dose, bilateral ocular, female DB rabbits
  AUC: 26 hr * ng eq./g
[2]; Lower Bulbar Conjunctiva, single dose, bilateral ocular, female DB rabbits
  AUC: 13107 hr * ng eq./g
[2]; Lower Eyelid, single dose, bilateral ocular, female DB rabbits
  AUC: 512473 hr * ng eq./g
[2]; Nictitating Membrane, single dose, bilateral ocular, female DB rabbits
  AUC: 13091 hr * ng eq./g
[2]; Optic Nerve, single dose, bilateral ocular, female DB rabbits
  AUC: 1127 hr * ng eq./g
[2]; Sclera, single dose, bilateral ocular, female DB rabbits
  AUC: 3502 hr * ng eq./g
[2]; Submandibular Lymph Node, single dose, bilateral ocular, female DB rabbits
  AUC: 635 hr * ng eq./g
[2]; Tear, single dose, bilateral ocular, female DB rabbits
  AUC: 262299 hr * ng eq./g
[2]; Upper Bulbar Conjunctiva, single dose, bilateral ocular, female DB rabbits
  AUC: 14296 hr * ng eq./g
[2]; Upper Eyelid, single dose, bilateral ocular, female DB rabbits
  AUC: 68063 hr * ng eq./g
[2]; Vitreous Humor, single dose, bilateral ocular, female DB rabbits
  AUC: 16 hr * ng eq./g
[2]; single dose to DB rabbits
  ocular tissue concentrations (e.g., Cmax) versus NZW rabbits (melanin binding): not significantly different from NZW rabbits

## C=C/C=C/C[C@@H](C)[C@@H](O)[C@H]1C(=O)N[C@@H](CC)C(=O)N(C)CC(=O)N(C)[C@@H](CC(C)C)C(=O)N[C@@H](C(C)C)C(=O)N(C)[C@@H](CC(C)C)C(=O)N[C@@H](C)C(=O)N[C@H](C)C(=O)N(C)[C@@H](CC(C)C)C(=O)N(C)[C@@H](CC(C)C)C(=O)N(C)[C@@H](C(C)C)C(=O)N1C [voclosporin, reference compound]
[3]; 30 days treatment period, 0.2 wt % voclosporin topically every 12 hours
  adverse effects: No adverse effects were noted
[3]; dogs with KCS, 30 days
  maintenance of STT: maintained the STT in these dogs for 30 days
[1]; after multiple dosing
  tissue accumulation: minimal tissue accumulation
[1]; single (1 day) topical dose, female NZW rabbits
  tissue levels at 24 hours: Therapeutic levels of voclosporin were noticed even at the 24-hour mark
[1]; [4]
  level in the choriod/retina: high levels
  level in the vitreous humor: low levels

From US8435544B2, “Ophthalmic compositions comprising calcineurin inhibitors or mTOR inhibitors” (Lux Biosciences, Inc., priority 2007, dated 2013)
